Results reported in patent US11613558B2, “Peptides and pharmaceutical compositions for treating eye diseases” (Yuyu Pharma, Inc., priority 2018, dated 2023).
Square brackets hold non-standard residues; d marks the D form. Peptide text beside a SMILES is read from it. ξ: configuration not given here. Hyp = O=C(O)[C@@H]1C[C@@H](O)CN1; Ile(3ξ) = CCC(C)[C@H](N)C(=O)O; Thr(3ξ) = CC(O)[C@H](N)C(=O)O

Assays:
[1] = tested on: rats with dry eye syndrome (extraorbital lacrimal gland excision, ELGE); test: Amount of tear secretion (Schirmer test, cobalt chloride paper) in ELGE rats with dry eye syndrome; type: in vivo, rat; details: for Change in amount of tear secretion as compared with the ELGE control group: 3% solution as printed, after administration for 14 days; for Tear Volumes, Day 7 / Tear Volumes, Day 14: Table 4, study of YDE-001 to YDE-028, ELGE rats, 3 mg/ml, 5 μl/eye twice daily; for Tear Volumes, Day 7: day 7 of administration; for Tear Volumes, Day 14: day 14 of administration
Source text: (§1) In order to evaluate the eye protection effect on dry eye syndrome by YDE-001 to YDE-028 prepared in Example 1, a total of 320 Sprague-Dawley-type male rats (OrientBio, Seungnam, Korea) were adapted for 7 days. Thereafter, dry eye syndrome was induced in 264 test rats through extraorbital lacrimal gland excision (hereinafter, ELGE). 8 test rats without the eye abnormality were subjected to a sham operation as a control group.
(§2) The rat was systemically anesthetized by inhaling a mixed gas of 2% to 3% of isoflurane (Hana Pharm. Co., Hwasung, Korea), 70% of N2O, and 28.6% of O2 using a rodent anesthesia machine (Surgivet, Waukesha, Wis., USA) and a ventilator (Model 687, Harvard Apparatus, Cambridge, UK). Thereafter, the extraorbital lacrimal gland located in the subdermal area above the masseter muscle and […] was excised through a transverse incision in a size of 10 mm on the anterior part of the left ear tragus. The skin was sutured by a general method. […] After 6 days from the ELGE operation, it was checked through the Schirmer test by measuring the amount of tear secretion whether dry eye syndrome had been induced. Meanwhile, each rat of the control group with the sham operation was checked for the presence and location of the extraorbital lacrimal gland through a skin incision, and the skin was then sutured without the excision thereof (FIG. 4).
(§3) In addition, in order to evaluate the eye protection effect on dry eye syndrome by YDE-029 to YDE-043 prepared in Example 1, a total of 200 Sprague-Dawley-type male rats (OrientBio, Seungnam, Korea) were adapted for 7 days. Dry eye syndrome was induced in 165 test rats through the ELGE. 8 test rats without the eye abnormality were subjected to the sham operation as a control group. The ELGE was carried out as described above.
(§4) For YDE-001 to YDE-028, YY-102 and the 28 YDE-series were each dissolved in physiological saline at a concentration of 3 mg/ml and administered at a dose of 5 μl/eye at 9:30 am and 3:30 pm daily for 14 days after 7 days from the ELGE operation for a total of 28 times. The DS solution was dissolved in physiological saline at a concentration of 30 mg/ml and administered at a dose of […] twice a day for 14 days after 7 days from the ELGE operation for a total of 28 times. For the sham control and the ELGE control groups, the same stimulation as the administration was applied. In order to prevent excessive eye dryness, the same volume of physiological saline was applied in the same manner in place of the test substances.
as §4, with “Further, for YDE-029 to YDE-043,” for “For YDE-001 to YDE-028,”, “YDE-029 to YDE-043, YY-102 and” for “YDE-001 to YDE-028, YY-102 and”, “and the 15 YDE-series were” for “and the 28 YDE-series were”, “the test substances (FIG. 7).” for “the test substances.”
After 6 days from the ELGE surgery, the changes in the amount of tear secretion were measured at day 7 and day 14 after the administration of YDE-001 to YDE-043. The amount of tear secretion was measured by the […] travel distance of tears absorbed by cobalt chloride paper in a size of 1×15 mm (Toyo Roshi Kaisha, Japan).
The cobalt chloride paper was placed in the lateral canthus of a rat for 60 seconds to absorb tears (FIG. 9). The length of the area absorbed from the corner of the cobalt chloride paper was measured with an electronic digital caliper (Mytutoyo, Tokyo, Japan) (FIG. 8).

[2] = tested on: cornea of rats with dry eye syndrome (ELGE); test: Corneal permeability of fluorescent dye (corneal damage) in ELGE rats with dry eye syndrome; type: in vivo, rat; details: Table 6, study of YDE-001 to YDE-028, 3 mg/ml, 5 μl/eye twice daily, day 14
Source text: as §1, §2, §3, §4
as §4, with “Further, for YDE-029 to YDE-043,” for “For YDE-001 to YDE-028,”, “YDE-029 to YDE-043, YY-102 and” for “YDE-001 to YDE-028, YY-102 and”, “and the 15 YDE-series were” for “and the 28 YDE-series were”, “the test substances (FIG. 7).” for “the test substances.”
After YDE-001 to YDE-028 were each administered to the eyes […], the changes in the corneal permeability were checked.
In order to measure the corneal permeability, Zolethyl 50™ (Virbac Lab., Carros, France), an animal anesthetic, was intraperitoneally injected at a dose of 25 mg/kg. Thereafter, saline containing a 1% (v/v) fluorescent solution (fluorescein sodium salt, Tokyo Kasei Kogyo Co., Tokyo, Japan) was applied to the eyes at a dose of 5 μl/eye. The eyes thus treated were closed and fixed with a tape. After 1 hour, the remaining fluorescent solution was removed using a cotton swab (FIG. 12). […]

[3] = Stability in aqueous solution under long-term storage conditions (related substances); type: physicochemical; details: 25° C., 75% RH
Method: In order to confirm the stability of each test substance in an aqueous solution, […] of each sample was dissolved in 1 ml of water to a concentration of 1 mg/ml, which was then charged to a glass vial, plugged with a rubber cap, sealed with an aluminum cap, and stored under long-term storage conditions (25° C., 75% RH). The stability of the test substance was evaluated by measuring the amount of related substances at the time of one week, two weeks, four weeks, eight weeks, and twelve weeks under the long-term storage conditions.

Row | Amount of related substances (after 12 weeks) [3] [%] | Structure (SMILES) | Change in amount of tear secretion as compared with the ELGE control group ([1]; study of YDE-001 to YDE-028) | Change in amount of tear secretion as compared with the ELGE control group ([1]; study of YDE-029 to YDE-043) | Permeability of fluorescent dye [2] [%] | Tear Volumes, Day 7 [1] [mm^3] | Tear Volumes, Day 14 [1] [mm^3]
1 | – | O=c1ccn([C@@H]2O[C@H](COP(=O)(O)OP(=O)(O)OP(=O)(O)OP(=O)(O)OC[C@H]3O[C@@H](n4ccc(=O)[nH]c4=O)[C@H](O)[C@@H]3O)[C@@H](O)[C@H]2O)c(=O)[nH]1 [DS, diquafosol sodium, reference compound] | increased | increased | – | – | –
2 | 3.92 | CC(C)C[C@H](NC(=O)CNC(=O)[C@H](CCC(=O)O)NC(=O)[C@H](CCC(N)=O)NC(=O)CNC(=O)[C@@H]1C[C@@H](O)CN1)C(=O)N[C@@H](C)C(=O)NCC(=O)N1CCC[C@H]1C(=O)N[C@@H](CCCCN)C(=O)O [YDE-001] (H-[Hyp]GQEGLAGPK-OH) | – | – | 25.49 ± 11.62 | 4.88 ± 1.62 | 5.92 ± 2.19
3 | 4.93 | CC(C)C[C@H](NC(=O)CNC(=O)[C@H](CC(N)=O)NC(=O)[C@H](CCC(N)=O)NC(=O)CNC(=O)[C@@H]1C[C@@H](O)CN1)C(=O)N[C@@H](C)C(=O)NCC(=O)N1CCC[C@H]1C(=O)N[C@@H](CCCCN)C(=O)O [YDE-002] (H-[Hyp]GQNGLAGPK-OH) | – | – | 38.26 ± 11.25 | 3.84 ± 1.16 | 5.01 ± 1.67
4 | 6.86 | CC(C)C[C@H](NC(=O)CNC(=O)[C@H](CCC(N)=O)NC(=O)[C@H](CCC(N)=O)NC(=O)CNC(=O)[C@@H]1C[C@@H](O)CN1)C(=O)N[C@@H](C)C(=O)NCC(=O)N1CCC[C@H]1C(=O)N[C@@H](CCCCN)C(=O)O [YDE-003] (H-[Hyp]GQQGLAGPK-OH) | – | – | 40.45 ± 6.46 | 4.13 ± 1.76 | 4.88 ± 1.57
5 | 2.11 | CC(C)C[C@H](NC(=O)CNC(=O)[C@H](Cc1cnc[nH]1)NC(=O)[C@H](CCC(N)=O)NC(=O)CNC(=O)[C@@H]1C[C@@H](O)CN1)C(=O)N[C@@H](C)C(=O)NCC(=O)N1CCC[C@H]1C(=O)N[C@@H](CCCCN)C(=O)O [YDE-004] (H-[Hyp]GQHGLAGPK-OH) | – | – | 35.05 ± 11.74 | 3.42 ± 1.06 | 5.19 ± 1.84
6 | 2.97 | CC(C)C[C@H](NC(=O)CNC(=O)[C@H](CCCCN)NC(=O)[C@H](CCC(N)=O)NC(=O)CNC(=O)[C@@H]1C[C@@H](O)CN1)C(=O)N[C@@H](C)C(=O)NCC(=O)N1CCC[C@H]1C(=O)N[C@@H](CCCCN)C(=O)O [YDE-005] (H-[Hyp]GQKGLAGPK-OH) | – | – | 37.98 ± 11.53 | 3.85 ± 0.93 | 5.08 ± 1.91
7 | 3.67 | CC(C)C[C@H](NC(=O)CNC(=O)[C@H](CO)NC(=O)[C@H](CCC(N)=O)NC(=O)CNC(=O)[C@@H]1C[C@@H](O)CN1)C(=O)N[C@@H](C)C(=O)NCC(=O)N1CCC[C@H]1C(=O)N[C@@H](CCCCN)C(=O)O [YDE-006] (H-[Hyp]GQSGLAGPK-OH) | – | – | 33.23 ± 13.26 | 3.44 ± 1.69 | 5.35 ± 1.68
8 | 3.76 | CC(C)C[C@H](NC(=O)CNC(=O)[C@@H](NC(=O)[C@H](CCC(N)=O)NC(=O)CNC(=O)[C@@H]1C[C@@H](O)CN1)C(C)O)C(=O)N[C@@H](C)C(=O)NCC(=O)N1CCC[C@H]1C(=O)N[C@@H](CCCCN)C(=O)O (stereo partly shown) [YDE-007] (H-[Hyp]GQ[Thr(3ξ)]GLAGPK-OH) | – | – | 32.79 ± 10.77 | 3.91 ± 1.28 | 5.45 ± 1.26
9 | 4.42 | CC(C)C[C@H](NC(=O)CNC(=O)[C@H](C)NC(=O)[C@H](CCC(N)=O)NC(=O)CNC(=O)[C@@H]1C[C@@H](O)CN1)C(=O)N[C@@H](C)C(=O)NCC(=O)N1CCC[C@H]1C(=O)N[C@@H](CCCCN)C(=O)O [YDE-008] (H-[Hyp]GQAGLAGPK-OH) | – | – | 20.32 ± 11.87 | 4.57 ± 1.25 | 6.10 ± 2.36
10 | 4.71 | CC(C)C[C@H](NC(=O)CNC(=O)[C@@H](NC(=O)[C@H](CCC(N)=O)NC(=O)CNC(=O)[C@@H]1C[C@@H](O)CN1)C(C)C)C(=O)N[C@@H](C)C(=O)NCC(=O)N1CCC[C@H]1C(=O)N[C@@H](CCCCN)C(=O)O [YDE-009] (H-[Hyp]GQVGLAGPK-OH) | did not show any significant changes | – | 41.50 ± 7.86 | 3.76 ± 1.21 | 4.54 ± 1.11
11 | 4.39 | CCC(C)[C@H](NC(=O)[C@H](CCC(N)=O)NC(=O)CNC(=O)[C@@H]1C[C@@H](O)CN1)C(=O)NCC(=O)N[C@@H](CC(C)C)C(=O)N[C@@H](C)C(=O)NCC(=O)N1CCC[C@H]1C(=O)N[C@@H](CCCCN)C(=O)O (stereo partly shown) [YDE-010] (H-[Hyp]GQ[Ile(3ξ)]GLAGPK-OH) | did not show any significant changes | – | 49.29 ± 12.06 | 3.42 ± 1.31 | 4.35 ± 1.36
12 | 3.57 | CC(C)C[C@H](NC(=O)CNC(=O)[C@H](Cc1ccccc1)NC(=O)[C@H](CCC(N)=O)NC(=O)CNC(=O)[C@@H]1C[C@@H](O)CN1)C(=O)N[C@@H](C)C(=O)NCC(=O)N1CCC[C@H]1C(=O)N[C@@H](CCCCN)C(=O)O [YDE-012] (H-[Hyp]GQFGLAGPK-OH) | – | – | 31.01 ± 11.38 | 3.68 ± 0.99 | 5.67 ± 1.86
13 | 5.92 | CC(C)C[C@H](NC(=O)CNC(=O)[C@H](Cc1ccc(O)cc1)NC(=O)[C@H](CCC(N)=O)NC(=O)CNC(=O)[C@@H]1C[C@@H](O)CN1)C(=O)N[C@@H](C)C(=O)NCC(=O)N1CCC[C@H]1C(=O)N[C@@H](CCCCN)C(=O)O [YDE-013] (H-[Hyp]GQYGLAGPK-OH) | – | – | 32.24 ± 7.84 | 5.27 ± 1.50 | 5.49 ± 1.92
